Drawing on patent US20110144374A1, “OXIME ETHER DERIVATIVE AND FUNGICIDE FOR AGRICULTURE AND HORTICULTURE” (Nippon Soda Co., Ltd., priority 2008, published 2011), this text covers melting point for three compounds.

Each structure is given as a SMILES string.

What is called melting point is the temperature, or range, at which the solid turns liquid.

`COC(=O)NOc1cc(/C(C)=N/OCc2cccc(F)c2C(F)(F)F)ccc1Cl` [Compound 1-13, N-(2-chloro-5-{1-[3-fluoro-2-(trifluoromethyl)benzyloxyimino]ethyl}phenoxy)methyl carbamate] registered a melting point of 104 to 105 °C.

`COC(=O)NOc1cc(/C(C)=N/OCc2ccccc2I)ccc1Cl` [Compound 11-9, N-{2-chloro-5-[1-(2-iodobenzyloxyimino)ethyl]phenoxy}methyl carbamate] yielded a melting point of 121 to 122 °C. As for `COC(=O)NOc1cc(/C(C)=N/OCc2ccccc2C(F)(F)F)ccc1C` [Compound 21-24, N-{2-methyl-5-[1-(2-trifluoromethylbenzyloxyimino)ethyl]phenoxy}methyl carbamate], the figure is 82 to 85 °C.
